According to ChEMBL document CHEMBL3885881, “DrugMatrix”:

Species: Rattus norvegicus
Assay: DrugMatrix - Regimen: Daily Repeat
Format: toxicity, organism-based, Sprague-Dawley
Set-up: regimen Daily Repeat, gender Male, age 6-8 weeks
Settings: in vivo, po, route oral GAVAGE, […]; for ABSOLUTE BASOPHIL / ABSOLUTE EOSINOPHIL / ABSOLUTE LYMPHOCYTE / ABSOLUTE MONOCYTE / ABSOLUTE SEGMENTED NEUTROPHIL / BASOPHIL / EOSINOPHIL / ERYTHROCYTE COUNT / HEMATOCRIT / HEMOGLOBIN / LEUKOCYTE COUNT / LYMPHOCYTE / MEAN CORPUSCULAR HEMOGLOBIN / MEAN CORPUSCULAR HEMOGLOBIN CONCENTRATION / MEAN CORPUSCULAR VOLUME / MONOCYTE / NEUTROPHIL / NUCLEATED RED BLOOD CELLS / PLATELET COUNT: tissue Blood; for ALANINE AMINOTRANSFERASE / ALBUMIN / ALKALINE PHOSPHATASE / ASPARTATE AMINOTRANSFERASE / BLOOD UREA NITROGEN / CARBON DIOXIDE / CHLORIDE / CHOLESTEROL / CREATINE PHOSPHOKINASE / CREATININE / GLUCOSE / LACTATE DEHYDROGENASE / LIPASE / PHOSPHORUS / POTASSIUM / SODIUM / TOTAL BILIRUBIN / TOTAL PROTEIN / URIC ACID: tissue Plasma
[1] = 12 mg/kg, 120 h, dose level Low, time 5 day
[2] = 380 mg/kg, 72 h, dose level High, time 3 day
[3] = 380 mg/kg, 120 h, dose level High, time 5 day

## COc1ncnc(NS(=O)(=O)c2ccc(N)cc2)c1OC [SULFADOXINE]
[1]
  ABSOLUTE BASOPHIL: 0 CELLS/uL
  ABSOLUTE EOSINOPHIL: 0 CELLS/uL
  ABSOLUTE LYMPHOCYTE: 10205.33 CELLS/uL
  ABSOLUTE MONOCYTE: 178 CELLS/uL
  ABSOLUTE SEGMENTED NEUTROPHIL: 483.33 CELLS/uL
  BASOPHIL: 0%
  EOSINOPHIL: 0%
  ERYTHROCYTE COUNT: 5.46 x10E6/uL
  HEMATOCRIT: 34.5%
  HEMOGLOBIN: 13.53 G/DL
  LEUKOCYTE COUNT: 10.87 x10E3/uL
  LYMPHOCYTE: 94%
  MEAN CORPUSCULAR HEMOGLOBIN: 24.8 pg
  MEAN CORPUSCULAR HEMOGLOBIN CONCENTRATION: 39.27 G/DL
  MEAN CORPUSCULAR VOLUME: 63.17 fL
  MONOCYTE: 1.67%
  NEUTROPHIL: 4.33%
  NUCLEATED RED BLOOD CELLS: 0 /100WBC
  PLATELET COUNT: 1312.33 x10E3/uL
  ALANINE AMINOTRANSFERASE: 52 u/L
  ALBUMIN: 4.1 G/DL
  ALKALINE PHOSPHATASE: 476 u/L
  ASPARTATE AMINOTRANSFERASE: 74.33 u/L
  BLOOD UREA NITROGEN: 11.67 mg/dL
  CARBON DIOXIDE: 31.67 mmol/L
  CHLORIDE: 101.67 MEQ/L
  CHOLESTEROL: 65.33 mg/dL
  CREATINE PHOSPHOKINASE: 233 u/L
  CREATININE: 0.14 mg/dL
  GLUCOSE: 140.33 mg/dL
  LACTATE DEHYDROGENASE: 125.67 u/L
  LIPASE: 11.33 u/L
  PHOSPHORUS: 10.5 mg/dL
  POTASSIUM: 5.98 MEQ/L
  SODIUM: 148.87 MEQ/L
  TOTAL BILIRUBIN: 0.27 mg/dL
  TOTAL PROTEIN: 5.87 G/DL
  URIC ACID: 0.53 mg/dL
[2]
  ABSOLUTE BASOPHIL: 0 CELLS/uL
  ABSOLUTE EOSINOPHIL: 29.33 CELLS/uL
  ABSOLUTE LYMPHOCYTE: 8090 CELLS/uL
  ABSOLUTE MONOCYTE: 197 CELLS/uL
  ABSOLUTE SEGMENTED NEUTROPHIL: 650.33 CELLS/uL
  BASOPHIL: 0%
  EOSINOPHIL: 0.33%
  ERYTHROCYTE COUNT: 5.01 x10E6/uL
  HEMATOCRIT: 31.2%
  HEMOGLOBIN: 12.27 G/DL
  LEUKOCYTE COUNT: 8.97 x10E3/uL
  LYMPHOCYTE: 90%
  MEAN CORPUSCULAR HEMOGLOBIN: 24.6 pg
  MEAN CORPUSCULAR HEMOGLOBIN CONCENTRATION: 39.4 G/DL
  MEAN CORPUSCULAR VOLUME: 62.43 fL
  MONOCYTE: 2.33%
  NEUTROPHIL: 7.33%
  NUCLEATED RED BLOOD CELLS: 0 /100WBC
  PLATELET COUNT: 1128.67 x10E3/uL
  ALANINE AMINOTRANSFERASE: 92.33 u/L
  ALBUMIN: 3.93 G/DL
  ALKALINE PHOSPHATASE: 373.33 u/L
  ASPARTATE AMINOTRANSFERASE: 93.67 u/L
  BLOOD UREA NITROGEN: 13 mg/dL
  CARBON DIOXIDE: 32.33 mmol/L
  CHLORIDE: 99.67 MEQ/L
  CHOLESTEROL: 78 mg/dL
  CREATINE PHOSPHOKINASE: 280 u/L
  CREATININE: 0.14 mg/dL
  GLUCOSE: 143 mg/dL
  LACTATE DEHYDROGENASE: 116.67 u/L
  LIPASE: 11.67 u/L
  PHOSPHORUS: 9.13 mg/dL
  POTASSIUM: 5.99 MEQ/L
  SODIUM: 144.13 MEQ/L
  TOTAL BILIRUBIN: 0.2 mg/dL
  TOTAL PROTEIN: 5.5 G/DL
  URIC ACID: 0.37 mg/dL
[3]
  ABSOLUTE BASOPHIL: 0 CELLS/uL
  ABSOLUTE EOSINOPHIL: 0 CELLS/uL
  ABSOLUTE LYMPHOCYTE: 5345.67 CELLS/uL
  ABSOLUTE MONOCYTE: 97.67 CELLS/uL
  ABSOLUTE SEGMENTED NEUTROPHIL: 423.33 CELLS/uL
  BASOPHIL: 0%
  EOSINOPHIL: 0%
  ERYTHROCYTE COUNT: 5.09 x10E6/uL
  HEMATOCRIT: 32.47%
  HEMOGLOBIN: 12.83 G/DL
  LEUKOCYTE COUNT: 5.87 x10E3/uL
  LYMPHOCYTE: 91.33%
  MEAN CORPUSCULAR HEMOGLOBIN: 25.23 pg
  MEAN CORPUSCULAR HEMOGLOBIN CONCENTRATION: 39.53 G/DL
  MEAN CORPUSCULAR VOLUME: 63.77 fL
  MONOCYTE: 1.67%
  NEUTROPHIL: 7%
  NUCLEATED RED BLOOD CELLS: 0 /100WBC
  PLATELET COUNT: 1282.67 x10E3/uL
  ALANINE AMINOTRANSFERASE: 65.67 u/L
  ALBUMIN: 3.97 G/DL
  ALKALINE PHOSPHATASE: 341.33 u/L
  ASPARTATE AMINOTRANSFERASE: 76 u/L
  BLOOD UREA NITROGEN: 15 mg/dL
  CARBON DIOXIDE: 31.33 mmol/L
  CHLORIDE: 99.33 MEQ/L
  CHOLESTEROL: 75 mg/dL
  CREATINE PHOSPHOKINASE: 205.67 u/L
  CREATININE: 0.2 mg/dL
  GLUCOSE: 145 mg/dL
  LACTATE DEHYDROGENASE: 115.67 u/L
  LIPASE: 10.33 u/L
  PHOSPHORUS: 10.13 mg/dL
  POTASSIUM: 5.99 MEQ/L
  SODIUM: 144.77 MEQ/L
  TOTAL BILIRUBIN: 0.17 mg/dL
  TOTAL PROTEIN: 5.97 G/DL
  URIC ACID: 0.6 mg/dL
